The conditions of data set [1]: PO 6.25~50 mg/kg; cited from earlier work.
A short description of data set [2]: Intestinal permeability in Ussing chamber. In kind it is in vitro ADME, mice. The note with it: mouse, pH 7.4; range over intestinal segments, n = 3; read-out: permeability of marker compounds. As for the experimental part: The small intestines were isolated from fasted mice under isoflurane anesthesia (1–3% with oxygen gas flow) and dissected into three parts, the jejunum, upper ileum, and lower ileum. […] The intestinal permeability of 2-QBA was assessed by adding 0.5 mL of HBSS containing 20 μM of 2-QBA on the donor side and 0.5 mL of fresh HBSS on the receiver side. Then, a 100 μL aliquot was withdrawn from the receiver side every 30 min for 2 h and an equal volume of pre-warmed fresh HBSS was added to replenish the lost volume. To analyze the 2-QBA, 100 μL aliquots were mixed with 4 volumes of IS solution (1 ng/mL berberine in acetonitrile). The mixture was vigorously vortexed for 5 min and then centrifuged at 13,000× g for 5 min. The supernatant was transferred to autosampler vials. Subsequently, a 3 μL aliquot was injected into the LC-MS/MS system.

Consider `O=c1c(-c2ccc(O)cc2)coc2cc(O)cc(O)c12` [genistein], for which the “time within which multiple peaks appeared” value in data set [1] is recorded as at most 6 h.
Regarding `CC(C)NCC(O)COc1cccc2ccccc12` (centres unmarked) [propranolol, reference compound], the Papp in data set [2] was 10 to 22.5 ×10⁻⁶ cm/s.

These data come from publication PMC11279551, “Pharmacokinetics and Enterohepatic Circulation of 2-(Quinoline-8-carboxamido)benzoic Acid (2-QBA) in Mice” (Pharmaceutics, 2024).
